Test results from patent US20200404919A1, “USE OF HETEROARYL-TRIAZOLE AND HETEROARYL-TETRAZOLE COMPOUNDS AS PESTICIDES IN PLANT PROTECTION” (Bayer Aktiengesellschaft, priority 2018, published 2020).

Experiments:
Format in all cases: in vivo
Aphis gossypii = Aphis gossypii - oral test; settings: 120 h, read-out: mortality in %
How it was run: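 Oral exposure: compound solution, prepared from acetone concentrate diluted in water, combined with sugar-supplemented IPL41 medium and sealed under parafilm for aphid feeding. Percent kill recorded at day 5.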

Tetranychus urticae = Tetranychus urticae - spray test OP-resistant; settings: foliar, 144 h, French bean leaf disks, all instars, after 6 days
Procedure: Tetranychus urticae—Spray Test OP-Resistant
To produce a suitable preparation of active compound, 1 part by weight of active compound is mixed with the stated amount of solvents and is diluted with water, containing an emulsifier concentration of 1000 ppm, to the desired concentration. Further test concentrations are prepared by dilution with emulsifier containing water.
French bean (Phaseolus vulgaris) leaf disks infected with all instars of the two spotted spidermite (Tetranychus urticae), are sprayed with a preparation of the active ingredient of the desired concentration.
After 6 days mortality in % is determined. 100% means all spider mites have been killed and 0% means none of the spider mites have been killed.

Myzus persicae = Myzus persicae - oral test; settings: 120 h, read-out: mortality in %
How it was run: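 Scoring at day 5 gives percent mortality (0% none, 100% all killed) of a mixed aphid population that sucked compound preparation in sugar-supplemented IPL41 medium through a parafilm seal.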

Phaedon cochleariae = Phaedon cochleariae - spray test; settings: in Brassica rapa, foliar, 168 h, read-out: mortality in %
How it was run: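 Mortality read 7 days after infestation; 100% means every larva dead, 0% none. Larvae placed on dried Chinese cabbage leaf disks previously sprayed with compound preparation diluted in emulsifier-containing water (1000 ppm).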

[1] = test system: Aedes aegypti strain MONHEIM; assay: Aedes test (AEDSAE surface treatment & contact assay); settings: 30 minutes exposure, 24 hours after contact, read-out: efficacy (mortality in percent); for mortality at 4 mg/m2: surface concentration 4 mg/m^2, glazed tile; for mortality at 20 mg/m2: surface concentration 20 mg/m^2, glazed tile
Procedure: Aedes Test (AEDSAE Surface Treatment & Contact Assay)
Solvent: Aceton+2000 ppm rapeseed oil methyl ester (RME)
(§1) In order to produce a sufficient, active ingredient containing solution it is necessary to solve the test-compound in an acetone/RME solvent mixture. This solution is pipetted onto a glazed tile and after evaporation of the acetone, adult mosquitoes of the species Aedes aegypti strain MONHEIM are placed onto the dried surface. The exposure time is 30 minutes.
(§2) Mortality in percent (%) is determined 24 hours after contact to the treated surface. 100% mortality means that all test-insects are dead, whereas 0% means that not a single insect died.

Nezara viridula = Nezara viridula - spray test 1; settings: in Hordeum vulgare, 96 h, read-out: mortality in %
How it was run: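 Percent kill of Nezara viridula larvae was read 4 days after spraying infested barley (Hordeum vulgare). The spray was the compound concentrate diluted in 1000 ppm emulsifier-containing water.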

Nilaparvata lugens = Nilaparvata lugens - spray test 1; settings: in Oryza sativa, 96 h, read-out: mortality in %, 500 g/ha, rice plants, after 4 days
How it was run: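 Mortality (%) was scored 4 days after infesting treated plants with brown planthopper, where 100% means all insects were killed. Compound was applied by spraying rice (Oryza sativa) at the desired concentration, diluted in water carrying 1000 ppm emulsifier.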

Culex quinquefasciatus = assay: Culex test (CULXFAS surface treatment & contact assay); settings: 30 minutes exposure, 24 hours after contact, read-out: efficacy (mortality in percent); for mortality at 4 mg/m2: surface concentration 4 mg/m^2, glazed tile; for mortality at 20 mg/m2: surface concentration 20 mg/m^2, glazed tile
Procedure: Culex Test (CULXFAS Surface Treatment & Contact Assay)
Solvent: Acetone+2000 ppm rapeseed oil methyl ester (RME)
as §1, with “Culex quinquefasciatus (Brown house mosquito)” for “Aedes aegypti strain MONHEIM”
as §2

Diabrotica balteata = Diabrotica balteata - spray test; settings: 168 h, 160 μg/well, germinated wheat seeds, larvae, after 7 days, read-out: efficacy in %
How it was run: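 Efficacy (%) read 7 days after infesting treated seedlings with 10-20 banded cucumber beetle larvae, 100% meaning growth as in uninfected untreated control and 0% no growth. Test solutions in water containing 1000 ppm emulsifier were sprayed onto wheat seeds germinated for 1 day on agar.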

[2] = test system: Blattella germanica strain PAULINIA; assay: Blattella germanica test (BLTTGE surface treatment & contact assay); settings: 30 minutes exposure, 24 hours after contact, read-out: efficacy (mortality in percent); for mortality at 4 mg/m2: surface concentration 4 mg/m^2, glazed tile; for mortality at 20 mg/m2: surface concentration 20 mg/m^2, glazed tile
Procedure: Blattella germanica Test (BLTTGE Surface Treatment & Contact Assay)
(§3) Solvent: Aceton+2000 ppm Rapeseed oil methyl ester (RME)
as §1, with “animals” for “mosquitoes”, “Blattella germanica” for “Aedes aegypti”, “PAULINIA” for “MONHEIM”
as §2

[3] = test system: Musca domestica strain WHO-N; assay: Musca domestica test (MUSCDO surface treatment & contact assay); settings: 30 minutes exposure, 24 hours after contact, read-out: efficacy (mortality in percent); for mortality at 4 mg/m2: surface concentration 4 mg/m^2, glazed tile; for mortality at 20 mg/m2: surface concentration 20 mg/m^2, glazed tile
Procedure: Musca domestica Test (MUSCDO Surface Treatment & Contact Assay)
as §3
as §1, with “flies” for “mosquitoes”, “Musca domestica” for “Aedes aegypti”, “WHO-N” for “MONHEIM”
as §2

Spodoptera frugiperda = Spodoptera frugiperda - spray test; settings: in Zea mays, 168 h, read-out: mortality in %
How it was run: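 Read-out: % larval mortality at day 7, where 100% means all killed and 0% none killed. Compound diluted in water with 1000 ppm emulsifier, sprayed onto Zea mays leaf sections; dried sections then infested with S. frugiperda larvae.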

Meloidogyne incognita = Meloidogyne incognita - test; settings: 336 h, salad seedlings in sand, after 14 days, read-out: nematicidal activity (percentage of gall formation)
Procedure: Meloidogyne incognita—Test
Solvent: 125.0 parts by weight of acetone
To produce a suitable preparation of active compound, 1 part by weight of active compound is mixed with the stated amount of solvent, and the concentrate is diluted with water to the desired concentration.
Vessels are filled with sand, a solution of the active ingredient, a suspension containing eggs and larvae of the southern root-knot nematode (Meloidogyne incognita) and salad seeds. The salad seeds germinate and the seedlings grow. Galls develop in the roots.
After 14 days the nematicidal activity is determined on the basis of the percentage of gall formation. 100% means no galls were found and 0% means the number of galls found on the roots of the treated plants was equal to that in untreated control plants.

Structure (SMILES)	mortality at 100 ppm (Aphis gossypii)	mortality at 500 g/ha (Tetranychus urticae)	mortality at 20 ppm (Myzus persicae)	mortality at 500 g/ha (Phaedon cochleariae)	mortality at 4 mg/m2 [1]	mortality at 20 mg/m2 [1]	mortality at 500 g/ha (Nezara viridula)	mortality at 500 g/ha (Nilaparvata lugens)	mortality at 4 mg/m2 (Culex quinquefasciatus)	mortality at 20 mg/m2 (Culex quinquefasciatus)	pest or weed control at 160 µg/disc, 160 µg/well (Diabrotica balteata)	mortality at 4 mg/m2 [2]	mortality at 20 mg/m2 [2]	mortality at 4 mg/m2 [3]	mortality at 20 mg/m2 [3]	mortality at 500 g/ha (Spodoptera frugiperda)	pest or weed control at 20 ppm (Meloidogyne incognita)
CC(c1ncnn1-c1ncccn1)N(CC1CC1)C(=O)c1cc(Cl)cc(OC(F)(F)F)c1 (stereo not shown) [Compound I-37, 3-chloro-N-(cyclopropylmethyl)-N-[1-(2-pyrimidin-2-yl-1,2,4-triazol-3-yl)ethyl]-5-(trifluoromethoxy)benzamide]	100%	90%	100%	100%	80 to 100%	80 to 100%	100%	100%	80 to 100%	80 to 100%	100%	80 to 100%	80 to 100%	80 to 100%	80 to 100%	100%	–
C#CCN(C(=O)c1cc(Cl)cc(C(F)(F)F)c1)C(C)c1ncnn1-c1ncccn1 (stereo not shown) [Compound I-41, 3-chloro-N-prop-2-ynyl-N-[1-(2-pyrimidin-2-yl-1,2,4-triazol-3-yl)ethyl]-5-(trifluoromethyl)benzamide]	100%	90%	100%	100%	–	–	100%	100%	–	–	100%	–	–	–	–	100%	–
CC(c1ncnn1-c1ncccn1)N(CC1CC1)C(=O)c1cc(C(F)(F)F)cc(C(F)(F)F)c1 (stereo not shown) [Compound I-48, N-(cyclopropylmethyl)-N-[1-(2-pyrimidin-2-yl-1,2,4-triazol-3-yl)ethyl]-3,5-bis(trifluoromethyl)benzamide]	100%	–	100%	100%	80 to 100%	80 to 100%	100%	100%	80 to 100%	80 to 100%	100%	80 to 100%	80 to 100%	80 to 100%	80 to 100%	100%	100%
CC(c1ncnn1-c1ncc(F)cn1)N(CC1CC1)C(=O)c1cc(Cl)cc(C(F)(F)F)c1 (stereo not shown) [Compound I-81, 3-chloro-N-(cyclopropylmethyl)-N-[1-[2-(5-fluoropyrimidin-2-yl)-1,2,4-triazol-3-yl]ethyl]-5-(trifluoromethyl)benzamide]	100%	80%	100%	100%	80 to 100%	80 to 100%	100%	100%	80 to 100%	80 to 100%	100%	80 to 100%	80 to 100%	80 to 100%	80 to 100%	100%	–
CC(c1ncnn1-c1nccc(C(F)(F)F)n1)N(CC1CC1)C(=O)c1cc(Cl)cc(C(F)(F)F)c1 (stereo not shown) [Compound I-82]	100%	80%	100%	100%	–	–	100%	100%	–	–	100%	–	–	–	–	100%	100%
CC(c1ncnn1-c1ncccn1)N(CC1CC1)C(=O)c1cccc(SC(F)(F)F)c1 (stereo not shown) [Compound I-83]	100%	100%	100%	100%	–	–	100%	100%	–	–	100%	–	–	–	–	83%	–
CC(c1ncnn1-c1ncccn1)N(CC1CC1)C(=O)c1cc(Cl)cc(Cl)c1 (stereo not shown) [Compound I-95]	100%	–	100%	100%	–	–	100%	90%	–	–	100%	–	–	–	–	100%	90%
CCN(C(=O)c1cc(Cl)cc(C(F)(F)F)c1)C(C)c1ncnn1-c1ncccn1 (stereo not shown) [Compound I-97, 3-chloro-N-ethyl-N-[1-(2-pyrimidin-2-yl-1,2,4-triazol-3-yl)ethyl]-5-(trifluoromethyl)benzamide]	100%	80%	100%	100%	–	–	100%	100%	–	–	100%	–	–	–	–	100%	–
CC(c1ncnn1-c1ncccn1)N(CC1CC1)C(=O)c1cc(Cl)cc(SC(F)(F)F)c1 (stereo not shown) [Compound I-107, 3-chloro-N-(cyclopropylmethyl)-N-[1-(2-pyrimidin-2-yl-1,2,4-triazol-3-yl)ethyl]-5-(trifluoromethylsulfanyl)benzamide]	100%	–	100%	100%	–	–	100%	100%	–	–	100%	–	–	–	–	100%	90%
CC(c1ncnn1-c1ccncn1)N(CC1CC1)C(=O)c1cc(Cl)cc(C(F)(F)F)c1 (stereo not shown) [Compound I-110]	100%	95%	100%	100%	–	–	100%	100%	–	–	100%	–	–	–	–	100%	–
CC(c1ncnn1-c1cncnc1)N(CC1CC1)C(=O)c1cc(Cl)cc(C(F)(F)F)c1 (stereo not shown) [Compound I-112]	–	90%	–	–	–	–	–	–	–	–	100%	–	–	–	–	–	–
C[C@H](NC(=O)c1cc(Cl)cc(C(F)(F)F)c1)c1ncnn1-c1ncccc1Cl [Compound I-116]	100%	95%	90%	100%	–	–	100%	100%	–	–	100%	–	–	–	–	100%	–
